Test results from patent US9359338B2, “Cyclopropanecarboxamido-substitute aromatic compounds as anti-tumor agents” (Crown Bioscience Inc. (Taiwan), priority 2012, dated 2016).
Read-outs that look alike come from different tables or passages of the source.

Tests used:
[1] = target: KDR kinase (790-1356 AA) (Homo sapiens (Human), UniProt P35968); assay: Inhibitory activity at KDR kinase (Lance Ultra Ulight-TK assay); type: biochemical
Procedure, shortened: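 TR-FRET (Eu-anti-phosphotyrosine PT66) with 20 nM KDR preincubated with compound 20 min at 30 °C in HEPES pH 7.5 buffer with Mg2+/Mn2+, 0.5% DMSO.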

[2] = test system: PLC-PRF-5 cells; assay: Inhibition of proliferation of PLC-PRF-5 cells (ATPlite); type: cell-based; settings: Homo sapiens, PLC-PRF-5, PLC-PRF-5 cells; read-out: PLC-PRF-5 cell proliferation IC50
Procedure, shortened: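 PLC-PRF-5 cells in DMEM/10% FBS, seeded 2 h before compound; 8-point 3-fold dilutions from 30 μM final top, 0.3% DMSO. After 96 h at 37 °C, 5% CO2, ATP content read by ATPlite luminescence; IC50 calculated.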

[3] = target: B-Raf kinase (Homo sapiens (Human), UniProt P15056); assay: Inhibitory activity at B-Raf kinase (ADP-GLO assay); type: biochemical
Protocol: Inhibitory Activity of Compounds at B-Raf Kinase
• [Experimental method]: Use ADP-GLO™ assay kit from Promega to evaluate the inhibitory activity of compounds at B-Raf • [Instrument]: PerKinElmer's ENVISION plate reader • [Material]: Optiplate-384 well plate (PerKinElmer), kinase buffer (50 mM Hepes pH7.5, 1 mM EGTA, 2 mM DTT, 10 mM Mg^2+, 0.05% BSA), B-Raf kinase (Millipore, catalogue #14-530-K), GST-MEK1 substrate (Carna, catalogue #07-141-10), Super pure ATP (Promega), ADP-GLO™ assay kit (Promega, catalogue # V9102), DMSO (Sigma, catalogue #34869), purified water (Millipore, type: Milli-Q). • [Study conditions]: Mix B-Raf kinase (final concentration: 5 nM) and compound (DMSO final concentration: 0.25%) and preincubate at 30° C. for 20 min, then add ATP (final concentration: 6 μM) and reaction substrate (final concentration: 30 nM), React for 2 hrs at 30° C. After reaction, add ADP-GLO™ reagent, react for 40 min at room temperature, then add ADP-GLO™ detecting agent, react for 30 min at room temperature. After that, use ENVSION to measure the […]. • [Samples]: Compounds in the examples and Sorafenib (positive control) • [Data analysis]: Use CBIS data analysis software to calculate IC50 values

[4] = test system: pERK in MDA-MB-231 cells; assay: Inhibitory activity at pERK (In Cell Western, MDA-MB-231 cells); type: cell-based; settings: read-out: MDA-MB-231 pERK IC50
Procedure, shortened: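 MDA-MB-231 cells were treated 2 h at 37 °C with 8 compound concentrations in 3-fold dilutions from 30 μM top (0.3% DMSO, DMEM with 0.1% BSA). Cells were then fixed, methanol-permeabilized and immunostained for pERK with PI counterstain. Fluorescence was read on Acumen and IC50 calculated.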

[5] = Homo sapiens, MDA-MB-231, MDA-MB-231 cells

Sequence of B-Raf kinase (P15056 416-766): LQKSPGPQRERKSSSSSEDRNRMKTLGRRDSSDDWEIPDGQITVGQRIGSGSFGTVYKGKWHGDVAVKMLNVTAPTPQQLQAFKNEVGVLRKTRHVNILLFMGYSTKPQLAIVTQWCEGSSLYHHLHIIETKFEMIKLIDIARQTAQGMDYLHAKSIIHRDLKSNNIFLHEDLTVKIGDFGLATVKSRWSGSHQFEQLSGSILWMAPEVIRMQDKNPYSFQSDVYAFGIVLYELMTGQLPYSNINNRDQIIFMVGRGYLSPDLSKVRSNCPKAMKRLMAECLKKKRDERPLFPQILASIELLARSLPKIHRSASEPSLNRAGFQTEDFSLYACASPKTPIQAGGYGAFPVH
Sequence of KDR kinase (790-1356 AA) (P35968 790-1356): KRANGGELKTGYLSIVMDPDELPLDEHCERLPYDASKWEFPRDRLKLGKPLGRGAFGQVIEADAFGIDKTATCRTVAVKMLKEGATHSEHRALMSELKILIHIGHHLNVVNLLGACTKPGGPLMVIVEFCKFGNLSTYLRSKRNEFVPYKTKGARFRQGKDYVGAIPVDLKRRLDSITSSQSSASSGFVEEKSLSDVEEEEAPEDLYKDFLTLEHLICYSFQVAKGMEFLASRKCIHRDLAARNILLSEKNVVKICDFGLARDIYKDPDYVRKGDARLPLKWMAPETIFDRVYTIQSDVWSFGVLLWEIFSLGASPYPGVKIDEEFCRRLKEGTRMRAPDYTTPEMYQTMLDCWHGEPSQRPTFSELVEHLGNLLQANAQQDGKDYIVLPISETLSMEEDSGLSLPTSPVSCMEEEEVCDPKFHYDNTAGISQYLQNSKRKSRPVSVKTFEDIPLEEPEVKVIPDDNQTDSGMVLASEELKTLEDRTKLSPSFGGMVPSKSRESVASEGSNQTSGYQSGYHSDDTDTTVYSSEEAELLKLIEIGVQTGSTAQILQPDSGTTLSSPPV

Row | Structure (SMILES) | IC50 [1] [nM] | IC50 [2] [nM] | IC50 [3] [nM] | IC50 [4, 5] [nM] | IC50 ([4]; MDA-MB-231 cells) [nM]
1 | Cc1cc(Oc2cc(NC(=O)C3CC3)ncn2)ccc1NC(=O)Nc1ccc(Cl)c(C(F)(F)F)c1 [Exe. 001, N-[6-[4-[[4-chloro-3-(trifluoromethyl)phenyl]carbamoylamino]-3-methyl-phenoxy]pyrimidin-4-yl]cyclopropanecarboxamide] | 10.9 | 6900 | 39 | 31 | 
2 | O=C(Nc1ccc(Oc2cc(NC(=O)C3CC3)ncn2)cc1)Nc1ccc(Cl)c(C(F)(F)F)c1 [Exe. 007] | 5.7 | 7240 | 24.8 | 46 | 
3 | O=C(Nc1ccc(Oc2cc(NC(=O)C3CC3)ncn2)c(F)c1)Nc1ccc(Cl)c(C(F)(F)F)c1 [Exe. 008] | 5.7 | 4550 | 24.9 | 124 | 
4 | O=C(Nc1ccc(Cl)c(C(F)(F)F)c1)Nc1ccc(Oc2cc(NC(=O)C3CC3)ncn2)cc1F [Exe. 009] | 8.9 | 3650 | 26 | 20.5 | 
5 | Cc1cc(NC(=O)Nc2ccc(Cl)c(C(F)(F)F)c2)ccc1Oc1cc(NC(=O)C2CC2)ncn1 [Exe. 010] | 13.7 | 4350 | 97 | 43.1 | 
6 | Cc1cc(NC(=O)Nc2ccc(Cl)c(C(F)(F)F)c2)cnc1Oc1ccnc(NC(=O)C2CC2)c1 [Exe. 017] | 29.2 | 2820 | 15.7 | 18.8 | 
7 | O=C(Nc1cnc(Oc2ccnc(NC(=O)C3CC3)c2)c(Cl)c1)Nc1ccc(Cl)c(C(F)(F)F)c1 [Exe. 019] | 22.3 | 840 | 18.1 | 172 | 
8 | O=C(Nc1ccc(Oc2ccnc(NC(=O)C3CC3)c2)nc1)Nc1ccc(Cl)c(C(F)(F)F)c1 [Exe. 020] | 5.8 | 1990 | 19.7 | 291 | 
9 | O=C(Nc1ccc(Cl)c(C(F)(F)F)c1)Nc1ccc(Oc2ccnc(NC(=O)C3CC3)c2)cn1 [Exe. 021] | 7.5 | 600 | 24.7 | 10.2 | 
10 | O=C(Nc1ccc(Oc2ccnc(NC(=O)C3CC3)c2)c(F)c1)Nc1ccc(Cl)c(C(F)(F)F)c1 [Exe. 022] | 4.3 | 1710 | 3.6 |  | 19.5
11 | Cc1cc(Oc2ccnc(NC(=O)C3CC3)c2)ccc1NC(=O)Nc1ccc(Cl)c(C(F)(F)F)c1 [Exe. 023] | 10.5 | 4170 | 15 | 6.9 | 
12 | O=C(Nc1cc(F)cc(Oc2ccnc(NC(=O)C3CC3)c2)c1)Nc1ccc(Cl)c(C(F)(F)F)c1 [Exe. 024] | 33.8 | 4240 | 5.1 | 19.5 | 
13 | O=C(Nc1cnc(Oc2ccnc(NC(=O)C3CC3)c2)c(F)c1)Nc1ccc(Cl)c(C(F)(F)F)c1 [Exe. 025] | 14.9 | 371 | 9.1 | 71.6 | 
14 | CC1(C(=O)Nc2cc(Oc3ccc(NC(=O)Nc4ccc(Cl)c(C(F)(F)F)c4)cc3F)ccn2)CC1 [Exe. 028] | 12.7 | 2490 | 21 | 391 | 
15 | O=C(Nc1ccc(Cl)c(C(F)(F)F)c1)Nc1ccc(Oc2ccnc(NC(=O)C3CC3)c2)cc1F [Exe. 029] | 3.9 | 790 | 7.3 | 10.1 | 
16 | Cc1ccc(Oc2ccnc(NC(=O)C3CC3)c2)cc1NC(=O)Nc1ccc(Cl)c(C(F)(F)F)c1 [Exe. 030] | 12.4 | 2800 | 18 | 23.2 | 
17 | Cc1cc(NC(=O)Nc2ccc(Cl)c(C(F)(F)F)c2)ccc1Oc1ccnc(NC(=O)C2CC2)c1 [Exe. 031] | 14.5 | 1300 | 25 | 33.8 | 
18 | O=C(Nc1cccc(OC(F)(F)F)c1)Nc1ccc(Oc2ccnc(NC(=O)C3CC3)c2)cc1F [Exe. 034] | 10.2 | 219 | 9.4 | 4.7 | 
19 | CC(F)(F)c1cc(F)cc(NC(=O)Nc2ccc(Oc3ccnc(NC(=O)C4CC4)c3)cc2F)c1 [Exe. 035] | 7.8 | 259 | 8.9 | 9.3 | 
20 | CS(=O)(=O)c1cc(NC(=O)Nc2ccc(Oc3ccnc(NC(=O)C4CC4)c3)c(F)c2)cc(C(F)(F)F)c1 [Exe. 037] | 13.5 | 768 | 26 | 33.9 | 
21 | CN1CCC(Oc2cc(NC(=O)Nc3ccc(Oc4ccnc(NC(=O)C5CC5)c4)c(F)c3)cc(C(F)(F)F)c2)C1 (centres unmarked) [Exe. 038] | 8.2 | 130 | 5.3 | 23.5 | 
22 | CC1CN(c2cc(NC(=O)Nc3ccc(Oc4ccnc(NC(=O)C5CC5)c4)c(F)c3)cc(C(F)(F)F)c2)C(=O)O1 (centres unmarked) [Exe. 041] | 4.2 | 358 | 37.5 | 18.1 | 
23 | CC(=O)Nc1cc(NC(=O)Nc2ccc(Oc3ccnc(NC(=O)C4CC4)c3)c(F)c2)cc(C(F)(F)F)c1 [Exe. 044] | 14.2 | 752 | 13 | 29.8 | 
24 | CC1CN(c2cc(NC(=O)Nc3ccc(Oc4ccnc(NC(=O)C5CC5)c4)c(F)c3)cc(C(F)(F)F)c2)CC(C)O1 (centres unmarked) [Exe. 047] | 6.2 | 682 | 73.6 | 53.3 | 
25 | CN(C)C1CCN(c2cc(NC(=O)Nc3ccc(Oc4ccnc(NC(=O)C5CC5)c4)c(F)c3)cc(C(F)(F)F)c2)C1 (centres unmarked) [Exe. 048] | 7.3 | 233 | 11 | 25 | 
26 | O=C(Nc1cc(N2CCC(O)CC2)cc(C(F)(F)F)c1)Nc1ccc(Oc2ccnc(NC(=O)C3CC3)c2)c(F)c1 [Exe. 051] | 5.2 | 749 | 23.6 | 33.9 | 
27 | O=C(Nc1cc(N2CCCC2=O)cc(C(F)(F)F)c1)Nc1ccc(Oc2ccnc(NC(=O)C3CC3)c2)c(F)c1 [Exe. 052] | 15.5 | 360 | 13 | 22 | 
28 | CC(F)(F)c1cncc(NC(=O)Nc2ccc(Oc3ccnc(NC(=O)C4CC4)c3)c(F)c2)c1 [Exe. 056] | 17.5 | 110 | 65 | 39.7 | 
29 | O=C(Nc1ccc(Oc2ccnc(NC(=O)C3CC3)c2)c(F)c1)Nc1cc(C2CC2)ccc1F [Exe. 058] | 13.7 | 43 | 116 | 30 | 
30 | CN1CCN(Cc2cc(NC(=O)Nc3ccc(Oc4ccnc(NC(=O)C5CC5)c4)cc3)cc(C(F)(F)F)c2)CC1 [Exe. 064] | 11.9 | 610 | 4.6 |  | 
